Assays:
Assay in all cases: relative viability (nuclei count vs DMSO), 5 days (fraction); higher = more cells survive
Motesanib = compound: CC1(C)CNc2cc(NC(=O)c3cccnc3NCc3ccncc3)ccc21 [Motesanib]
How it was run: (§1)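 Viability was read as treated-well nuclei divided by vehicle-well nuclei, using the median across plates. Lung cancer cell lines in 1536-well plates were kept overnight at 37 °C, pinned with five √10-spaced library-drug doses, and after 5 days were Hoechst-stained, imaged at 4× and counted in MetaXpress. Plates passed only with control CV below 25% and at least one doubling.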

[1] = compound: C[C@@]1(C(=O)Nc2ccc(F)nc2)CCCN1c1nc(Nc2cc(C3CC3)n[nH]2)c2cccn2n1
How it was run: as §1

[2] = compound: C[C@@]1(C(=O)Nc2ccc(F)nc2)CCCN1c1nc(Nc2cc(C3CC3)n[nH]2)c2cccn2n1 + CC(C)C[C@H](NC(=O)[C@H](Cc1ccccc1)NC(=O)c1cnccn1)B(O)O [Bortezomib] (partner 0.002 µM)
How it was run: (§2)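 A single step with final 0.05% Triton X-100, 1% formaldehyde and 1 ug/ml Hoechst fixed the cells and stained nuclei 5 days after treatment. Lung cancer cell lines in 1536-well plates had been treated by pin tool the day after seeding with one drug alone or a fixed anchor-drug dose plus five library-drug doses (not always all listed) in √10 steps, and nuclei were counted on 4× images. Relative viability is the ratio of nuclei in treated wells to nuclei in vehicle wells, taken as the median of duplicate plates.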

Motesanib + Alpelisib = compound: CC1(C)CNc2cc(NC(=O)c3cccnc3NCc3ccncc3)ccc21 [Motesanib] + Cc1nc(NC(=O)N2CCC[C@H]2C(N)=O)sc1-c1ccnc(C(C)(C)C(F)(F)F)c1 [Alpelisib] (partner 2 µM)
How it was run: as §2

Cell Line	relative viability (Motesanib; 0.01 µM)	relative viability (Motesanib; 0.03162 µM)	relative viability (Motesanib; 0.1 µM)	relative viability (Motesanib; 0.3162 µM)	relative viability (Motesanib; 1 µM)	relative viability ([1]; 0.04 µM)	relative viability ([1]; 0.1265 µM)	relative viability ([1]; 0.4 µM)	relative viability ([1]; 1.265 µM)	relative viability ([2]; first compound 0.04 µM)	relative viability ([2]; first compound 0.1265 µM)	relative viability ([2]; first compound 0.4 µM)	relative viability ([2]; first compound 1.265 µM)	relative viability (Motesanib + Alpelisib; first compound 0.01 µM)	relative viability (Motesanib + Alpelisib; first compound 0.03162 µM)	relative viability (Motesanib + Alpelisib; first compound 0.1 µM)	relative viability (Motesanib + Alpelisib; first compound 0.3162 µM)	relative viability (Motesanib + Alpelisib; first compound 1 µM)
Calu-6	1	0.98	1	1.05	0.987	1.11	0.948	0.884	0.844	1.01	0.957	0.929	0.359	0.984	0.931	0.928	1.02	1.03
EBC-1	1.01	0.927	1.01	1.03	0.954	1.01	0.772	0.769	0.664	0.527	0.509	0.52	0.302	0.795	0.914	0.899	0.847	0.925
SW 1573	0.998	0.894	0.977	1.05	1.15	0.824	0.762	0.697	0.672	0.894	0.611	0.7	0.716	0.825	0.759	0.75	0.67	0.821
A-427	0.944	1.01	0.894	1.03	1.06	1.09	0.944	0.889	0.797	1	0.995	0.897	1.01	1.12	1.08	1.05	1.09	1.04
NCI-H2347	1.01	1.04	1.15	0.983	1.04	1.03	0.922	0.908	0.967	1.05	0.654	0.916	0.765	1.02	1	1.14	1.09	1.18
NCI-H1355	1.03	1.02	0.978	1.04	1.01	0.96	0.794	0.797	0.818	1.15	1.04	0.948	0.969	0.825	0.831	0.937	0.933	0.828
PC-3 [JPC-3]	1.05	1.03	1.05	1.03	1.05	1.04	0.937	1.02	1.02	0.831	0.819	0.788	0.874	1.09	1.03	1.07	1.09	1.03
NCI-H2228	1.1	1.03	0.971	1.11	1.06	0.857	0.781	0.743	0.652	1.25	0.731	0.835	0.751	0.767	0.713	0.722	0.777	0.806
HOP-62	1.06	1.04	1.12	1.09	1.11	1.03	0.97	0.914	1.08	0.752	0.67	0.704	1.02	0.91	0.663	0.922	1.3	1.15
HARA	0.959	1.1	0.909	1.09	0.997	0.815	1.01	0.756	0.723	1.11	1.12	0.684	1.05	0.808	0.852	0.815	0.943	0.831
NCI-H838	1.04	0.962	0.985	1.02	0.932	0.942	0.76	0.693	0.736	0.807	0.687	0.498	0.547	0.992	1.02	1.08	0.982	1.03
NCI-H1755	1.01	0.989	1.03	1.07	1.03	1.02	0.875	0.92	0.958	0.957	0.838	0.85	0.881	0.879	0.905	1.02	1.03	0.909
HCC-78	0.891	0.957	0.957	0.92	1.03	0.968	0.686	0.496	0.44	0.445	0.855	0.293	0.317	0.337	0.304	0.35	0.356	0.333
IA-LM	0.927	1.03	0.957	1.04	0.941	1.05	1	0.863	0.861	0.844	0.933	0.807	0.48	0.616	0.788	0.711	0.891	0.746
NCI-H322M	1.04	0.993	0.988	0.946	0.954	0.853	0.602	0.644	0.728	1.22	0.894	1.06	1.1	0.713	0.737	0.837	0.751	0.778
NCI-H3122	0.98	1.02	1.04	1.05	1.05	0.979	0.986	0.99	0.962	0.993	1.03	1.04	0.944	0.789	0.79	0.915	0.921	0.946
COR-L23	1.01	0.962	1.03	1.04	1.07	1.13	0.985	0.886	0.774	1.06	1.01	0.936	0.583	0.719	0.783	0.802	0.736	0.781
NCI-H2087	1.14	0.887	1.06	1.25	1.37	0.954	0.815	0.868	0.819	0.778	0.825	0.624	0.631	1.01	1.08	1.07	1.16	1.03

Cell Line	relative viability (Motesanib; 0.01 µM)	relative viability (Motesanib; 0.03162 µM)	relative viability (Motesanib; 0.1 µM)	relative viability (Motesanib; 0.3162 µM)	relative viability (Motesanib; 1 µM)	relative viability ([1]; 0.04 µM)	relative viability ([1]; 0.1265 µM)	relative viability ([1]; 0.4 µM)	relative viability ([1]; 1.265 µM)	relative viability ([2]; first compound 0.04 µM)	relative viability ([2]; first compound 0.1265 µM)	relative viability ([2]; first compound 0.4 µM)	relative viability ([2]; first compound 1.265 µM)	relative viability (Motesanib + Alpelisib; first compound 0.01 µM)	relative viability (Motesanib + Alpelisib; first compound 0.03162 µM)	relative viability (Motesanib + Alpelisib; first compound 0.1 µM)	relative viability (Motesanib + Alpelisib; first compound 0.3162 µM)	relative viability (Motesanib + Alpelisib; first compound 1 µM)
LC-2-ad	0.992	0.974	1.01	1.07	0.981	0.89	0.845	0.752	0.625	1.06	0.845	0.805	0.411	0.801	0.919	0.923	1.03	0.813
NCI-H1915	0.978	0.988	0.908	1.05	1.04	1	1.06	0.982	0.982	1.06	0.95	0.952	1.01	1.02	1.02	1.03	1.02	1.06
NCI-H2023	1.02	0.906	0.955	1.01	0.979	0.881	0.613	0.547	0.394	0.912	0.821	0.62	0.244	0.628	0.669	0.68	0.619	0.648
COR-L 105	1.05	0.875	0.905	0.957	0.997	1.01	0.662	0.781	0.681	0.709	0.631	0.415	0.373	0.872	1.16	0.992	0.79	1.26
RERF-LC-KJ	0.899	0.981	1	0.952	1.01	0.937	0.797	0.828	0.838	0.919	0.872	0.907	0.878	0.814	0.805	0.854	0.642	0.86
LXF-289	0.991	0.999	1.02	1.15	1.03	1.03	0.978	0.997	1.03	1.01	0.929	0.961	1	0.983	1.05	1.06	1.05	1.04
PC-14	0.977	0.995	0.974	1.07	1.05	1.04	0.769	0.875	0.946	0.846	0.715	0.674	0.799	0.958	1.03	0.998	0.931	0.958
NCI-H650	0.976	1.04	0.992	1.07	0.907	0.841	0.649	0.784	0.585	0.699	0.762	0.605	0.46	0.925	0.85	1.14	1.09	1.08
NCI-H1666	1.04	0.965	0.976	0.99	1.08	0.932	0.83	0.773	0.753	0.678	0.434	0.455	0.444	0.799	0.977	0.949	1.02	1.16
NCI-H2085	1.02	0.993	0.981	1.06	1.01	1.07	0.952	0.942	0.955	1.04	0.927	0.834	0.945	0.939	1.01	1.02	0.943	1.05
NCI-H1734	0.968	1.01	0.948	1.07	1.01	0.855	0.721	0.651	0.615	0.856	0.781	0.641	0.577	0.711	0.608	0.719	0.72	0.746
NCI-H2126	1.03	1.04	1.01	1.04	1.07	0.882	0.614	0.553	0.599	1.08	0.861	0.769	0.746	0.77	0.723	0.724	0.768	0.699
EMC-BAC-2	0.964	1.01	0.987	1.05	0.95	0.848	0.766	0.642	0.593	0.948	0.871	0.804	0.78	0.76	0.742	0.768	0.731	0.704
NCI-H1993	0.993	0.941	0.977	0.963	1.06	0.732	0.696	0.649	0.686	0.797	–	0.615	0.674	0.656	0.659	0.765	0.697	0.642
NCI-H520	0.931	1.03	0.971	1.05	0.906	0.977	0.915	0.953	0.99	0.621	0.446	0.501	0.483	0.864	0.899	0.879	0.871	0.768
NCI-H647	0.827	1	0.93	1.06	0.988	1.05	0.869	0.848	0.86	1.15	0.9	0.706	0.791	1.02	1.21	1.1	1.33	1.09
NCI-H1792	0.742	0.805	0.908	0.918	1.12	0.602	0.423	0.383	0.295	0.868	0.825	0.651	0.506	0.702	0.63	0.78	0.757	0.685
